Read-outs that look alike come from different tables or passages of the source.
Experiments:
[1] = MAD study, two additional single-dose cohorts: pharmacokinetics; type: in vivo, human; conditions: for AUC(0-t) / Cmax / Tmax / AUC(0-inf): human, plasma, oral; for AUC(0-inf): read-out: AUC0-inf, Mean
Procedure: (§1) A multiple ascending dose (MAD) study of Compound 1 with two additional single-dose cohorts was also completed. […] Secondary objectives included evaluation of the pharmacokinetic (PK) profile and the relationship between Compound 1 PK and pharmacodynamic (PD) characteristics, that is, the inhibition of complement alternative pathway (AP) activity (PK/PD). In the MAD study, multiple-dose pharmacokinetics and pharmacodynamics of Compound 1 were evaluated in four dose groups administered Compound 1 (40, 80, 120 and 200 mg BID) in the fasted state for 14-days (Table 3). Eight subjects received active drug in each group; eight subjects received placebo in the first dose group (40 mg) and two subjects received placebo in each of the other three dose groups. Two additional cohorts were administered Compound 1 at single doses of 240 mg (fasted subjects) and 120 mg (fed subjects) (Table 3). The two single-dose cohorts each comprised six subjects receiving active drug and two subjects receiving placebo. Plasma and serum samples for PK and PD assessment were collected on selected days prior to dosing (at local troughs), and on days 1, 7, and 14 at 0.5-hour to 2-hour intervals for more detailed assessment.

[2] = Multiple ascending dose (MAD) study: multiple-dose pharmacokinetics; type: in vivo, human; conditions: for concentration at 120 h: Day 6, 0 hr post-dose (120 h); for concentration at 120 h / concentration at 132 h / concentration at 144 h / concentration at 156 h / concentration at 168 h / concentration at 192 h / concentration at 288 h / concentration at 300 h / concentration at 312 h / concentration at 324 h: read-out: Pre-dose (trough) plasma concentration, Mean; for concentration at 132 h: Day 6, 12 hr post-dose (132 h); for concentration at 144 h: Day 7, 0 hr post-dose (144 h); for concentration at 156 h: Day 7, 12 hr post-dose (156 h); for concentration at 168 h: Day 8, 0 hr post-dose (168 h); for concentration at 192 h: Day 9, 0 hr post-dose (192 h); for concentration at 288 h: Day 13, 0 hr post-dose (288 h); for concentration at 300 h: Day 13, 12 hr post-dose (300 h); for concentration at 312 h: Day 14, 0 hr post-dose (312 h); for concentration at 324 h: Day 14, 12 hr post-dose (324 h); for Cmax: read-out: Cmax, Mean
Procedure: as §1

[3] = 120 mg single dose, fed moderate fat meal
[4] = 120 mg single dose, moderate-fat meal vs fasted (SAD)
[5] = human, plasma, oral, 40 mg, 40 mg BID × 14 Days, Day 1
[6] = human, plasma, oral, 40 mg, 40 mg BID × 14 Days, Day 7
[7] = human, plasma, oral, 40 mg, 40 mg BID × 14 Days, Day 14
[8] = human, plasma, oral, 80 mg, 80 mg BID × 14 Days, Day 1
[9] = human, plasma, oral, 80 mg, 80 mg BID × 14 Days, Day 7
[10] = human, plasma, oral, 80 mg, 80 mg BID × 14 Days, Day 14
[11] = human, plasma, oral, 80 mg, 80 mg BID

t½term, Mean [1, 3]: 9.39 h
mean AUC lower in the fed state vs fasted [1, 4]: 00.8%
mean Cmax lower in the fed state vs fasted [1, 4]: 2.2%
t½term, Mean ([1]; 240 mg single dose, fasted): 9.33 h
AUC(0-t) ([1]; 120 mg, 120 mg single dose, fed moderate fat meal, read-out: AUC(0-12), Mean): 1250 ng·h/mL
AUC(0-t) ([1]; 120 mg, 120 mg single dose, fed moderate fat meal, read-out: AUC(0-72), Mean): 1490 ng·h/mL
AUC(0-t) ([1]; 240 mg, 240 mg single dose, fasted, read-out: AUC(0-12), Mean): 2770 ng·h/mL
AUC(0-t) ([1]; 240 mg, 240 mg single dose, fasted, read-out: AUC(0-72), Mean): 3510 ng·h/mL
Cmax [1, 3]: 309 ng/mL
Tmax [1, 3]: 2.83 h
AUC(0-inf) [1, 3]: 1490 ng·h/mL
Cmax ([1]; 240 mg single dose, fasted): 594 ng/mL
Tmax ([1]; 240 mg single dose, fasted): 2.67 h
AUC(0-inf) ([1]; 240 mg single dose, fasted): 3520 ng·h/mL
Mean pre-dose concentrations at steady-state, range ([2]; 40 mg BID): 15.6 to 23.5 ng/mL
Mean pre-dose concentrations at steady-state, range ([2]; 80 mg BID): 45.9 to 83.7 ng/mL
Mean pre-dose concentrations at steady-state, range ([2]; 120 mg BID): 80.6 to 153 ng/mL
Mean pre-dose concentrations at steady-state, range ([2]; 200 mg BID): 247 to 392 ng/mL
concentration at 120 h ([2]; human, plasma, oral, 40 mg BID): 27.8 ng/mL
concentration at 132 h ([2]; human, plasma, oral, 40 mg BID): 17.9 ng/mL
concentration at 144 h ([2]; human, plasma, oral, 40 mg BID): 24.3 ng/mL
concentration at 156 h ([2]; human, plasma, oral, 40 mg BID): 15.7 ng/mL
concentration at 168 h ([2]; human, plasma, oral, 40 mg BID): 27.8 ng/mL
concentration at 192 h ([2]; human, plasma, oral, 40 mg BID): 26.9 ng/mL
concentration at 288 h ([2]; human, plasma, oral, 40 mg BID): 23.5 ng/mL
concentration at 300 h ([2]; human, plasma, oral, 40 mg BID): 15.3 ng/mL
concentration at 312 h ([2]; human, plasma, oral, 40 mg BID): 25.2 ng/mL
concentration at 324 h ([2]; human, plasma, oral, 40 mg BID): 16.2 ng/mL
concentration at 12 h ([2]; human, plasma, oral, 40 mg BID, all 12 hr (evening) troughs, read-out: Mean C(12), steady-state trough): 15.6 ng/mL
Tmax [2, 5]: 1.56 h
AUC(0-t) ([2]; human, plasma, oral, 40 mg, 40 mg BID × 14 Days, Day 1, read-out: AUC(0-12), Mean): 392 ng·h/mL
Cmax [2, 5]: 107 ng/mL
Tmax [2, 6]: 1.8 h
AUC(0-t) ([2]; human, plasma, oral, 40 mg, 40 mg BID × 14 Days, Day 7, read-out: AUC(0-12), Mean): 741 ng·h/mL
AUC(0-t) ([2]; human, plasma, oral, 40 mg, 40 mg BID × 14 Days, Day 7, read-out: AUC(0-24), Mean): 1480 ng·h/mL
Cmax [2, 6]: 169 ng/mL
Tmax [2, 7]: 1.58 h
AUC(0-t) ([2]; human, plasma, oral, 40 mg, 40 mg BID × 14 Days, Day 14, read-out: AUC(0-12), Mean): 732 ng·h/mL
AUC(0-t) ([2]; human, plasma, oral, 40 mg, 40 mg BID × 14 Days, Day 14, read-out: AUC(0-24), Mean): 1460 ng·h/mL
Cmax [2, 7]: 156 ng/mL
concentration at 156 h ([2]; human, plasma, oral, 80 mg BID): 43.7 ng/mL
concentration at 168 h ([2]; human, plasma, oral, 80 mg BID): 109 ng/mL
concentration at 192 h ([2]; human, plasma, oral, 80 mg BID): 102 ng/mL
concentration at 288 h ([2]; human, plasma, oral, 80 mg BID): 63.3 ng/mL
concentration at 300 h ([2]; human, plasma, oral, 80 mg BID): 45.2 ng/mL
concentration at 312 h ([2]; human, plasma, oral, 80 mg BID): 85 ng/mL
Tmax [2, 8]: 1.79 h
AUC(0-t) ([2]; human, plasma, oral, 80 mg, 80 mg BID × 14 Days, Day 1, read-out: AUC(0-12), Mean): 856 ng·h/mL
Cmax [2, 8]: 207 ng/mL
Tmax [2, 9]: 2 h
AUC(0-t) ([2]; human, plasma, oral, 80 mg, 80 mg BID × 14 Days, Day 7, read-out: AUC(0-12), Mean): 1990 ng·h/mL
AUC(0-t) ([2]; human, plasma, oral, 80 mg, 80 mg BID × 14 Days, Day 7, read-out: AUC(0-24), Mean): 3990 ng·h/mL
Cmax [2, 9]: 472 ng/mL
Tmax [2, 10]: 2.14 h
AUC(0-t) ([2]; human, plasma, oral, 80 mg, 80 mg BID × 14 Days, Day 14, read-out: AUC(0-12), Mean): 1980 ng·h/mL
AUC(0-t) ([2]; human, plasma, oral, 80 mg, 80 mg BID × 14 Days, Day 14, read-out: AUC(0-24), Mean): 3970 ng·h/mL
Cmax [2, 10]: 453 ng/mL
concentration at 120 h [2, 11]: 73.8 ng/mL
concentration at 132 h [2, 11]: 52.1 ng/mL
concentration at 144 h [2, 11]: 69.1 ng/mL
concentration at 324 h [2, 11]: 42.5 ng/mL
SMILES: CC(=O)c1nn(CC(=O)N2[C@H](C(=O)Nc3nc(Br)ccc3C)C[C@@]3(C)C[C@@H]23)c2ccc(-c3cnc(C)nc3)cc12 [Compound 1, (1R,3S,5R)-2-(2-(3-acetyl-5-(2-methylpyrimidin-5-yl)-1H-indazol-1-yl)acetyl)-N-(6-bromo-3-methylpyridin-2-yl)-5-methyl-2-azabicyclo[3.1.0]hexane-3-carboxamide]

From patent publication US12239645B2, “Targeted dosing for the treatment of complement mediated disorders” (Achillion Pharmaceuticals, Inc., priority 2018, dated 2025)
